Experimental data from US9526742B2, “Use of epigenome-modifying compounds for the treatment of genetic muscular diseases linked to a protein-conformational disorder” (GENETHON, priority 2012, dated 2016).

Tested on: R77C mutated α-sarcoglycan
Experiment: Immunofluorescence marking of α-sarcoglycan at the membrane of non-permeabilized quadri-transfected HER 911 cells
Format: cell-based, human
Conditions: 24 h treatment; for membrane localization of the R77C-mutated α-sarcoglycan protein: HER 911 cells quadri-transfected with α(R77C)-, β-, γ-, δ-sarcoglycan; for membrane addressing of the sarcoglycan complex: quadritransfected HER 911 cells
Procedure: HER-911 (“Human Embryonic Retinoblast”) cells have been inoculated in vials and cultivated up to a 80% confluence in Dulbecco's modified Eagle's+GlutaMAX (Gibco, Invitrogen) medium containing 10% of fetal calf serum, 0.01 mg/ml of gentamicin, and 1% MEM Non Essential Amino Acids (Gibco, Invitrogen). The cells have been maintained in a humidified atmosphere with 5% C02, at 37° C.
The HER-91 cells have been transfected by means of 12 μl of Fugene.6 Transfection Reagent (Roche) for 2 μg of plasmid (0.5 μg of each of the 4 sarcoglycan (SG) constructions for HER-911 cells). The plasmids expressing the SG, pcDNA3.V5-his_hα-SG, pcDNA3.V5-his_hβ-SG, pcDNA3.V5-his_hγ-SG, and pcDNA3.V5-his_hδ1-SG (transcriptional type-1 variant), are plasmids where the expression of the coding sequence of the respective sarcoglycans is under control of the CMV promoter.
After 48 h, the cells have been treated for 24 h with 5 μM of 5-aza-2′-deoxycytidine or 1 μM of SAHA (Suberoylanilide hydroxamnic acid).
The HER-911 cells have been fixed by incubation with 3.7% of formaldehyde for 15 min at room temperature. If necessary, a permeabilization has been performed by using 0.2% Triton X-100 for 20 min. After having been saturated with 20% fetal calf serum for 30 min, the cells have been incubated with primary antibodies at adapted dilutions (in PBS) for 1 h at room temperature. A monoclonal murine antibody specific for α-SG (NCL-A-SARC) is available from Novocastra. The cells have been washed 3 times with PBS and then incubated for 1 h with secondary antibodies diluted by 1/1,000 in PBS. Finally, the cells have been washed in PBS, mounted by using a Vectashield Mounting Medium with DAPI (Vector, H-1200), and then examined with a confocal immunofluorescence microscope (Leica).
HER 911 human cells have been quadri-transfected with plasmids coding β-, γ-, and δ-sarcoglycans and a plasmid coding either non-mutated α-sarcoglycan (FIG. 1A and FIG. 2A), or R77C mutated α-sarcoglycan (FIGS. 1B and 1C; FIGS. 2B and 2C).
An immunomarking has then been performed on the non-permeabilized cells by using an antibody directed against the extracellular portion of the α-sarcoglycan, which enables to visualize the protein only at the cellular membrane level and thus to compare the addressing of the mutated protein with that of the normal protein.

Structure (SMILES)	membrane localization of the R77C-mutated α-sarcoglycan protein (1 μM, FIG. 2C)	membrane addressing of the sarcoglycan complex (1 μM)	membrane localization of the R77C-mutated α-sarcoglycan protein (5 μM, FIG. 1C)	membrane addressing of the sarcoglycan complex (5 μM)
O=C(CCCCCCC(=O)Nc1ccccc1)NO [SAHA, suberoylanilide hydroxamic acid]	restores the membrane localization of the R77C-mutated protein	enabled to reconstitute the complex at the membrane	–	–
Nc1ncn([C@@H]2O[C@H](CO)[C@@H](O)[C@H]2O)c(=O)n1 [5-azacytidine]	–	–	restores the membrane localization of the R77C-mutated protein	enabled to reconstitute the complex at the membrane
